Tested on: moderate-to-severe chronic spontaneous urticaria (CSU)
Test: Phase 2 CSU study: itch severity score over 7 days (ISS7)
Type: in vivo, human
Details: for Non-responder n (%) (ISS7 reduction of 5 points or more) / OR for rilzabrutinib vs. placebo (ISS7 reduction of 5 points or more) / Responder n (%) (ISS7 reduction of 5 points or more) / Imputed non-responder n (%) (ISS7 reduction of 5 points or more) / RRD (%) for rilzabrutinib vs. placebo (ISS7 reduction of 5 points or more): Omalizumab-Naïve Population; for ISS7 Post-baseline Mean (SD): Omalizumab-Naïve, outlier removed
Description: The study comprises a 12 week, randomized, double-blind, placebo-controlled, multi-center, dose-ranging efficacy and safety phase, followed by a 40 week open label extension (OLE) phase (see FIG. 1). The study consists of three phases and an optional OLE phase. […] Clinically, CSU is characterized by the spontaneous and recurrent appearance of pruritic hives. The proposed primary endpoints were the UAS7 at Week 12 in EU and EU reference countries and the ISS7 in the US. Regardless of where a participant was from, all assessments were the same. The UAS7 score is a composite score containing both the HSS7 and the ISS7. This allowed a global assessment of the two key components of urticaria: hives and itch. […] The UAS is a validated PRO measure. […] The daily UAS scores range from 0 to 6 point/day. […] Patients were to complete the UAS using the e-diary. […] The following secondary endpoints were to be analyzed using the same approach as for the primary endpoint: • Change from baseline in UAS7 at Week 4 • Change from baseline in UAS7 at Week 12 (for US and US reference countries) • Change from baseline in ISS7 at Week 12 (except US and US reference countries) • Change from baseline in HSS7 at Week 12

SMILES: CC(C)(C=C(C#N)C(=O)N1CCC[C@@H](n2nc(-c3ccc(Oc4ccccc4)cc3F)c3c(N)ncnc32)C1)N1CCN(C2COC2)CC1 [rilzabrutinib, (R)-2-[3-[4-amino-3-(2-fluoro-4-phenoxy-phenyl)pyrazolo[3,4-d]pyrimidin-1-yl]piperidine-1-carbonyl]-4-methyl-4-[4-(oxetan-3-yl)piperazin-1-yl]pent-2-enenitrile]
- Non-responder n (%) (ISS7 reduction of 5 points or more) (400 mg QPM, Week 10): 14 (37.8) n (%)
- OR for rilzabrutinib vs. placebo (ISS7 reduction of 5 points or more) (400 mg QPM, Week 10): 1.614
- Responder n (%) (ISS7 reduction of 5 points or more) (400 mg QPM, Week 10): 23 (62.2) n (%)
- Imputed non-responder n (%) (ISS7 reduction of 5 points or more) (400 mg QPM, Week 11): 7 (18.9) n (%)
- Non-responder n (%) (ISS7 reduction of 5 points or more) (400 mg QPM, Week 11): 17 (45.9) n (%)
- OR for rilzabrutinib vs. placebo (ISS7 reduction of 5 points or more) (400 mg QPM, Week 11): 0.932
- RRD (%) for rilzabrutinib vs. placebo (ISS7 reduction of 5 points or more) (400 mg QPM, Week 11): −1.7%
- Responder n (%) (ISS7 reduction of 5 points or more) (400 mg QPM, Week 11): 20 (54.1) n (%)
- Imputed non-responder n (%) (ISS7 reduction of 5 points or more) (400 mg QPM, Week 12): 10 (27.0) n (%)
- Non-responder n (%) (ISS7 reduction of 5 points or more) (400 mg QPM, Week 12): 21 (56.8) n (%)
- OR for rilzabrutinib vs. placebo (ISS7 reduction of 5 points or more) (400 mg QPM, Week 12): 0.851
- RRD (%) for rilzabrutinib vs. placebo (ISS7 reduction of 5 points or more) (400 mg QPM, Week 12): −4.2%
- Responder n (%) (ISS7 reduction of 5 points or more) (400 mg QPM, Week 12): 16 (43.2) n (%)
- Imputed non-responder n (%) (ISS7 reduction of 5 points or more) (400 mg TID, Week 1): 0 n (%)
- Non-responder n (%) (ISS7 reduction of 5 points or more) (400 mg TID, Week 1): 13 (37.1) n (%)
- OR for rilzabrutinib vs. placebo (ISS7 reduction of 5 points or more) (400 mg TID, Week 1): 5.851
- RRD (%) for rilzabrutinib vs. placebo (ISS7 reduction of 5 points or more) (400 mg TID, Week 1): 40.1%
- Responder n (%) (ISS7 reduction of 5 points or more) (400 mg TID, Week 1): 22 (62.9) n (%)
- Imputed non-responder n (%) (ISS7 reduction of 5 points or more) (400 mg TID, Week 2): 0 n (%)
- Non-responder n (%) (ISS7 reduction of 5 points or more) (400 mg TID, Week 2): 12 (34.3) n (%)
- OR for rilzabrutinib vs. placebo (ISS7 reduction of 5 points or more) (400 mg TID, Week 2): 4.876
- RRD (%) for rilzabrutinib vs. placebo (ISS7 reduction of 5 points or more) (400 mg TID, Week 2): 36.4%
- Responder n (%) (ISS7 reduction of 5 points or more) (400 mg TID, Week 2): 23 (65.7) n (%)
- Imputed non-responder n (%) (ISS7 reduction of 5 points or more) (400 mg TID, Week 3): 0 n (%)
- Non-responder n (%) (ISS7 reduction of 5 points or more) (400 mg TID, Week 3): 12 (34.3) n (%)
- OR for rilzabrutinib vs. placebo (ISS7 reduction of 5 points or more) (400 mg TID, Week 3): 3.637
- RRD (%) for rilzabrutinib vs. placebo (ISS7 reduction of 5 points or more) (400 mg TID, Week 3): 34.3%
- Responder n (%) (ISS7 reduction of 5 points or more) (400 mg TID, Week 3): 23 (65.7) n (%)
- Imputed non-responder n (%) (ISS7 reduction of 5 points or more) (400 mg TID, Week 4): 3 (8.6) n (%)
- Non-responder n (%) (ISS7 reduction of 5 points or more) (400 mg TID, Week 4): 11 (31.4) n (%)
- OR for rilzabrutinib vs. placebo (ISS7 reduction of 5 points or more) (400 mg TID, Week 4): 2.777
- RRD (%) for rilzabrutinib vs. placebo (ISS7 reduction of 5 points or more) (400 mg TID, Week 4): 25.1%
- Responder n (%) (ISS7 reduction of 5 points or more) (400 mg TID, Week 4): 24 (68.6) n (%)
- Imputed non-responder n (%) (ISS7 reduction of 5 points or more) (400 mg TID, Week 5): 2 (5.7) n (%)
- Non-responder n (%) (ISS7 reduction of 5 points or more) (400 mg TID, Week 5): 10 (28.6) n (%)
- OR for rilzabrutinib vs. placebo (ISS7 reduction of 5 points or more) (400 mg TID, Week 5): 2.535
- RRD (%) for rilzabrutinib vs. placebo (ISS7 reduction of 5 points or more) (400 mg TID, Week 5): 22.7%
- Responder n (%) (ISS7 reduction of 5 points or more) (400 mg TID, Week 5): 25 (71.4) n (%)
- Imputed non-responder n (%) (ISS7 reduction of 5 points or more) (400 mg TID, Week 6): 4 (11.4) n (%)
- Non-responder n (%) (ISS7 reduction of 5 points or more) (400 mg TID, Week 6): 15 (42.9) n (%)
- OR for rilzabrutinib vs. placebo (ISS7 reduction of 5 points or more) (400 mg TID, Week 6): 1.563
- Responder n (%) (ISS7 reduction of 5 points or more) (400 mg TID, Week 6): 20 (57.1) n (%)
- Imputed non-responder n (%) (ISS7 reduction of 5 points or more) (400 mg TID, Week 7): 5 (14.3) n (%)
- Non-responder n (%) (ISS7 reduction of 5 points or more) (400 mg TID, Week 7): 11 (31.4) n (%)
- OR for rilzabrutinib vs. placebo (ISS7 reduction of 5 points or more) (400 mg TID, Week 7): 2.715
- RRD (%) for rilzabrutinib vs. placebo (ISS7 reduction of 5 points or more) (400 mg TID, Week 7): 23.5%
- Responder n (%) (ISS7 reduction of 5 points or more) (400 mg TID, Week 7): 24 (68.6) n (%)
- Imputed non-responder n (%) (ISS7 reduction of 5 points or more) (400 mg TID, Week 8): 7 (20.0) n (%)
- Non-responder n (%) (ISS7 reduction of 5 points or more) (400 mg TID, Week 8): 12 (34.3) n (%)
- OR for rilzabrutinib vs. placebo (ISS7 reduction of 5 points or more) (400 mg TID, Week 8): 1.891
- RRD (%) for rilzabrutinib vs. placebo (ISS7 reduction of 5 points or more) (400 mg TID, Week 8): 16.1%
- Responder n (%) (ISS7 reduction of 5 points or more) (400 mg TID, Week 8): 23 (65.7) n (%)
- Imputed non-responder n (%) (ISS7 reduction of 5 points or more) (400 mg TID, Week 9): 6 (17.1) n (%)
- Non-responder n (%) (ISS7 reduction of 5 points or more) (400 mg TID, Week 9): 11 (31.4) n (%)
- OR for rilzabrutinib vs. placebo (ISS7 reduction of 5 points or more) (400 mg TID, Week 9): 2.956
- RRD (%) for rilzabrutinib vs. placebo (ISS7 reduction of 5 points or more) (400 mg TID, Week 9): 25.1%
- Responder n (%) (ISS7 reduction of 5 points or more) (400 mg TID, Week 9): 24 (68.6) n (%)
- Imputed non-responder n (%) (ISS7 reduction of 5 points or more) (400 mg TID, Week 10): 5 (14.3) n (%)
- Non-responder n (%) (ISS7 reduction of 5 points or more) (400 mg TID, Week 10): 12 (34.3) n (%)
- OR for rilzabrutinib vs. placebo (ISS7 reduction of 5 points or more) (400 mg TID, Week 10): 1.910
- RRD (%) for rilzabrutinib vs. placebo (ISS7 reduction of 5 points or more) (400 mg TID, Week 10): 15.5%
- Responder n (%) (ISS7 reduction of 5 points or more) (400 mg TID, Week 10): 23 (65.7) n (%)
- Imputed non-responder n (%) (ISS7 reduction of 5 points or more) (400 mg TID, Week 11): 4 (11.4) n (%)
- Non-responder n (%) (ISS7 reduction of 5 points or more) (400 mg TID, Week 11): 10 (28.6) n (%)
- OR for rilzabrutinib vs. placebo (ISS7 reduction of 5 points or more) (400 mg TID, Week 11): 1.951
- RRD (%) for rilzabrutinib vs. placebo (ISS7 reduction of 5 points or more) (400 mg TID, Week 11): 15.5%
- Responder n (%) (ISS7 reduction of 5 points or more) (400 mg TID, Week 11): 25 (71.4) n (%)
- Imputed non-responder n (%) (ISS7 reduction of 5 points or more) (400 mg TID, Week 12): 8 (22.9) n (%)
- Non-responder n (%) (ISS7 reduction of 5 points or more) (400 mg TID, Week 12): 15 (42.9) n (%)
- OR for rilzabrutinib vs. placebo (ISS7 reduction of 5 points or more) (400 mg TID, Week 12): 1.469
- Responder n (%) (ISS7 reduction of 5 points or more) (400 mg TID, Week 12): 20 (57.1) n (%)
- ISS7 Post-baseline Mean (SD) (400 mg BID, Week 2): 10.32 (5.64)
- ISS7 Post-baseline Mean (SD) (400 mg BID, Week 3): 9.16 (6.09)
- ISS7 Post-baseline Mean (SD) (400 mg BID, Week 4): 8.32 (6.02)
- ISS7 Post-baseline Mean (SD) (400 mg BID, Week 5): 8.88 (6.81)
- ISS7 Post-baseline Mean (SD) (400 mg BID, Week 6): 8.85 (6.40)
- ISS7 Post-baseline Mean (SD) (400 mg BID, Week 7): 8.21 (6.16)
- ISS7 Post-baseline Mean (SD) (400 mg BID, Week 8): 7.33 (6.55)
- ISS7 Post-baseline Mean (SD) (400 mg BID, Week 9): 7.63 (7.11)
- ISS7 Post-baseline Mean (SD) (400 mg BID, Week 10): 8.17 (7.29)
- ISS7 Post-baseline Mean (SD) (400 mg BID, Week 11): 7.93 (6.94)
- ISS7 Post-baseline Mean (SD) (400 mg BID, Week 12): 8.09 (6.95)
- ISS7 Post-baseline Mean (SD) (400 mg QPM, Week 1): 13.08 (4.52)
- ISS7 Post-baseline Mean (SD) (400 mg QPM, Week 3): 11.60 (4.68)
- ISS7 Post-baseline Mean (SD) (400 mg QPM, Week 4): 11.39 (4.79)
- ISS7 Post-baseline Mean (SD) (400 mg QPM, Week 5): 11.00 (4.68)
- ISS7 Post-baseline Mean (SD) (400 mg QPM, Week 6): 10.27 (5.26)
- ISS7 Post-baseline Mean (SD) (400 mg QPM, Week 7): 10.68 (5.34)
- ISS7 Post-baseline Mean (SD) (400 mg QPM, Week 8): 10.72 (5.26)
- ISS7 Post-baseline Mean (SD) (400 mg QPM, Week 10): 10.43 (5.30)
- ISS7 Post-baseline Mean (SD) (400 mg QPM, Week 11): 11.03 (5.55)

Source: patent US20260256792A1, “TREATMENT OF CHRONIC SPONTANEOUS URTICARIA BY ADMINISTERING (R)-2-[3-[4-AMINO-3-(2-FLUORO-4-PHENOXY-PHENYL)PYRAZOLO[3,4-D]PYRIMIDIN-1-YL]PIPERIDINE-1-CARBONYL]-4-METHYL-4-[4-(OXETAN-3-YL)PIPERAZIN-1-YL]PENT-2-ENENITRILE” (priority 2023, published 2026)
